Read-outs that look alike come from different tables or passages of the source. Bounds are passed on as bounds.

We go through six compounds from US20190209548A1, “LINKED DIARYL COMPOUNDS WITH ANTICANCER PROPERTIES AND METHODS OF USING THE SAME” (University of Maryland, College Park, priority 2014, published 2019).

Data set [1] is described as follows: Human liver microsome stability. The format is in vitro ADME. The text has this: An established method to determine the pharmacokinetic clearance of a compound in humans is to measure the degradation of the compound in the presence of human liver microsomes. The following is the half-lives of the four compounds in human liver microsomes: […]
(Microsomes from liver hold many membrane-bound enzymes, among them those of drug oxidation.)

Another data set is described as follows: Tolerability studies. The format is in vivo. The settings on record: mice, 10 mg/Kg.
A further data set deals with NBM. The data set is described as follows: WST-1 IC50 determination, normal bone marrow. Format: cell-based, human. Particulars: Homo sapiens, Bone marrow cell; Normal bone marrow cells; read-out: Anticancer activities, NBM. How it is done: (§1) Cell lines and culturing. The following human cell lines were purchased from ATCC (ATCC, Manassas, Va.): prostate cancer cells (PC-3), triple negative breast cancer cells (MDA-MB-231), ovarian cancer cells (OVCAR-3), normal bone marrow (NBM) and normal fibroblast cells (MCR5A). MDA-MB-231 cells were grown at 37° C. with 5% CO2 atmosphere with DMEM (Life technologies, Carlsbad, Calif.) supplemented with heat-inactivated 10% (V/V) fetal bovine serum. OVCAR-3 and PC-3 cells were grown at 37° C. with 5% CO2 atmosphere with RPMI (Life technologies, Carlsbad, Calif.) supplemented with heat-inactivated 10% (V/V) fetal bovine serum. Cell lines were grown and maintained according to ATCC recommendations.
(§2) IC50 determination. Cell lines were seeded into 96-well plates the afternoon prior to treatment. Cell seeding number was determined by growing cells in log phase growth during drug treatment. Approximately 18 hours later, compounds were semi-serially diluted in dimethyl sulfoxide (DMSO) and then growth medium, and added to cells. Plates were incubated for 72 hours prior to addition of WST-1 (Promega, Madison Wis.). Plates were read after 4 additional hours of incubation at 37° C. using a Bio-Tek Synergy HT plate reader (Bio-Tek, Winooski, Vt.). Data was analyzed, graphed and IC50s generated using GraphPad Prism Software (Graphpad, La Jolla, Calif.).
(§3) IC50 determination: For the determination of IC50 for the azolamide class, the same protocol as described previously was followed.
(In general: Formazan colour is commonly taken as a measure of viable cells.)

The test system of data set [2] is triple-negative breast cancer cells. The data set is described as follows: Cancer cell migration. Format: cell-based. Particulars: increasing concentration. The text has this: FIG. 36. […] Red=negative control—no FCS in bottom well. Green=DMSO. Blue and pink=increasing concentration of 630-1.
The next data set deals with MV4-11. The data set can be described thus: IC50 determination, MV4-11. Format: cell-based. The settings on record: Homo sapiens, Acute monocyctic leukemia, read-out: Anticancer activities, MV4-11. How it is done: as §2, §3
Another data set concerns U87. The data set is described as follows: IC50 determination, U87. Format: cell-based. The settings on record: Homo sapiens, U-87 MG; Glioblastoma; read-out: Anticancer activities, U87. How it is done:
as §2, §3

The subject of a further data set is MOLM14. The data set can be described thus: WST-1 IC50 determination, MOLM14. The settings on record: Homo sapiens, MOLM-14, read-out: Anticancer activities, Molm14. The format is cell-based. How it is done: as §2, §3
Another data set has as its system MDA-MB-231. The data set can be described thus: WST-1 IC50 determination, MDA-MB-231. Format: cell-based, human. The method, then:
as §1, §2, §3

The next data set relates to PC-3. The data set is described as follows: WST-1 IC50 determination, PC-3. The format is cell-based, human. How it is done: as §1, §2, §3
In data set [3] the test system is G-quadruplex DNAs (c-kit1, VEGF, bcl-2 2345 and TBA). The data set is described as follows: UV-visible titration with G-quadruplex DNA. Format: binding. Particulars: UV-visible titration conditions. How it is done:
UV titration studies of DNA with the triazene ligands, DMZ and Triazene-1. The molar extinction coefficients at 260 nm for 22-mer c-kit1, 18-mer VEGF, 23-mer bcl-2 2345, 15-mer TBA and 20-mer 8 bp AT are as follows 226,700 M^−1 cm^−1, 169,800 M^−1 cm^−1, 227,300 M^−1 cm^−1, 143,300 M^−1 cm^1 and 205,500 M^−1 cm^−1, respectively. The concentration of ligands used in this study was 10 μM and the DNA concentrations were 0, 0.25, 1.5, 3, 5, 6, 7, 8, 9, 10, 20, 30, 40, 50, 100, and 15 μM. The buffer contained 250 mM KCl, 50 mM Tris-HCl (at pH 7.5). The following quadruplex DNA were tested: c-kit1, VEGF, bcl-2 2345, and TBA. Duplex DNA (8 bp AT) was also tested. The sample was first heated up to 95° C. for 5 min without the ligand and then cooled down to room temperature in 15 min. The ligand was then added and the mixture was incubated at 4° C. for ˜12 h before recording the data. In case of Triazene-1 and Triazene-2, the sample mixture contained 1% DMSO.

In a further data set the test system is OVCAR-3. The data set can be described thus: WST-1 IC50 determination, OVCAR-3. The format is cell-based, human. Particulars: 72 hours, WST-1. The method, then: as §1, §2, §3
The test system of another data set is c-kit2. The data set can be described thus: FRET melting assay, c-kit2. The format is binding. Particulars: dual-labeled DNA 0.2 μM, DMZ analogues 1 μM, potassium cacodylate 60 mM pH 7.2. How it is done:
(§4) Fluorescence resonance energy transfer (FRET) assay to determine Tm in absence and presence of ligands. Dual-labelled DNA was diluted from stock (50 μM) to 400 nM in 60 mM potassium cacodylate buffer (pH 7.2) and then annealed by heating at 85° C. for 10 min followed by cooling to room temperature in the heating block. Compounds were diluted from stock (20 mM in DMSO) to 2 μM in 60 mM cacodylate buffer (pH 7.2). 25 μL annealed DNA was added to 96-well plate followed by 25 μL diluted compounds. The sequences of labelled oligonucleotides were as follows: F21T 21-mer (5′-FAM-GGGTTAGGGTTAGGGTTAGGG-TAMRA-3′) (SEQ ID NO:11), c-kit2 26-mer (5′-FAM-CCCGGGCGGGCGCGAGGGAGGGGAGG-TAMRA-3′) (SEQ ID NO:12), k-RAS21R 21-mer (5′-FAM-AGGGCGGTGTGGGAAGAGGGA-TAMRA-3′) (SEQ ID NO:13), c-MYC 22-mer (5′-FAM-TGAGGGTGGGTAGGGTGGGTAA-TAMRA-3′) (SEQ ID NO:14) and duplex 26-mer (5′-FAM-TATAGCTATATTTTTTTATAGCTATA-TAMRA-3′) (SEQ ID NO: 15). Measurements were made in triplicate by using a LightCycler 480 System RT-PCR machine (Roche) and average values were reported. Fluorescence readings were made with excitation at 450-495 nm and detection at 515-545 nm, taken at intervals of 1.2° C./min in the range 25° C. to 95° C.

In a further data set the test system is c-MYC. The data set can be described thus: FRET melting assay, c-MYC. The format is binding. The settings on record: dual-labeled DNA 0.2 μM, DMZ analogues 1 μM, potassium cacodylate 60 mM pH 7.2. How it is done: as §4
The next data set concerns F21T. The data set can be described thus: FRET melting assay, F21T. Format: binding. Particulars: dual-labeled DNA 0.2 μM, DMZ analogues 1 μM, potassium cacodylate 60 mM pH 7.2. The method, then:
as §4

A further data set deals with k-RAS21R. The data set is described as follows: FRET melting assay, k-RAS21R. The settings on record: dual-labeled DNA 0.2 μM, DMZ analogues 1 μM, potassium cacodylate 60 mM pH 7.2. Format: binding. The method, then: as §4
For another data set, the system named is duplex. The data set can be described thus: FRET melting assay, duplex DNA. Format: binding. Particulars: dual-labeled DNA 0.2 μM, DMZ analogues 1 μM, potassium cacodylate 60 mM pH 7.2. How it is done:
as §4

Another data set concerns CFPAC-1. Particulars: read-out: IC50 of cisplatin; cited from earlier work.
Another data set deals with PNT1. Particulars: read-out: IC50 of cisplatin; cited from earlier work.
Another data set deals with U2-OS. The settings on record: read-out: IC50 of cisplatin; cited from earlier work.
The next data set relates to PC3. Particulars: read-out: IC50 of cisplatin; cited from earlier work.
The next data set has as its system HT29. Particulars: read-out: IC50 of cisplatin; cited from earlier work.
Another data set concerns Hep2. The settings on record: read-out: IC50 of cisplatin; cited from earlier work.
The next data set relates to HOS. Particulars: read-out: IC50 of cisplatin; cited from earlier work.
For the next data set, the system named is MCF-7/DX. The settings on record: read-out: IC50 of cisplatin; cited from earlier work.
The next data set concerns SH-SY5Y. Particulars: read-out: IC50 of cisplatin; cited from earlier work.
For another data set, the system named is A375. Particulars: read-out: IC50 of cisplatin; cited from earlier work.
In a further data set the test system is PANC-1. The settings on record: read-out: IC50 of cisplatin; cited from earlier work.
The test system of a further data set is SAOS-2. Particulars: read-out: IC50 of cisplatin; cited from earlier work.
For the next data set, the system named is RD. The settings on record: read-out: IC50 of cisplatin; cited from earlier work.
The subject of another data set is HT1080. The settings on record: read-out: IC50 of cisplatin; cited from earlier work.
For the next data set, the system named is Calu-3. Particulars: read-out: IC50 of cisplatin; cited from earlier work.
Another data set deals with A431. The settings on record: read-out: IC50 of cisplatin; cited from earlier work.
Another data set concerns SW872. The settings on record: read-out: IC50 of cisplatin; cited from earlier work.
The subject of the next data set is CAPAN-1. The settings on record: read-out: IC50 of cisplatin; cited from earlier work.
The mark [4] stands for this setting: human, liver microsomes, read-out: NADPH-dependent T½.
The mark [5] stands for this setting: human, liver microsomes, read-out: NADPH-independent T½.

For the compound `CCCCNC(=N)c1ccc(/N=N/c2c(N)ncc3ccc(Br)cc23)cc1` [HSY430-6], the half-life in data set [1] (setting [4]) is 2.57 h; in data set [1] (setting [5]) it was 2.38 h.
Consider `N=C(N)c1ccc(/N=N/c2c(N)ncc3ccc(Br)cc23)cc1` [HSW630-1], for which the tolerability entry in the data set “Tolerability studies” is given as “can be tolerated”. The IC50 was 5.1 µM in the data set on NBM; 0.15 µM in the data set with MV4-11; 0.56 µM in the data set on U87; 0.14 µM in the data set on MOLM14; 0.48 to 0.92 µM in the data set with MDA-MB-231 (Homo sapiens, MDA-MB-231, triple negative breast cancer, read-out: Anticancer activities, TNBC 231); 0.59 µM with PC-3 (Homo sapiens, PC-3, prostate cancer, read-out: Anticancer activities, PC3). Moreover, the entries for the “migration of cancer cells” value in data set [2] and in data set [2] (listed as 630-1) were “prevents cancer cells from migrating” and “can inhibit migration”, respectively. Besides, the half-life in [1] (setting [4]) was 3.18 h; in data set [1] (setting [5]) it was 2.07 h.
Regarding `c1ccc(N=NNc2ccccc2)cc1` [Triazene-2], the self-aggregation entry in [3] is recorded as “exhibited self-aggregation”.
Consider `N=C(N)c1ccc(N=NNc2ccncc2)cc1` [DMZ14], for which the “Anticancer activity IC50 ± SD, OVCAR-3” value with OVCAR-3 was “NE (NE means not effective. Cell viability was the same or greater than 75% of the DMSO control at 20 μM compound concentration.)”. Moreover, in the data set with c-kit2, the “ΔTm c-kit2” value came to 6.58 ± 0.78 °C. Also, the “ΔTm c-MYC” value with c-MYC was 6.97 ± 0.26 °C. Also, in the data set with MDA-MB-231 (72 hours, WST-1), the “Anticancer activity IC50 ± SD, MDA-MB-231” value is “NE (NE means not effective. Cell viability was the same or greater than 75% of the DMSO control at 20 μM compound concentration.)”. Moreover, the “ΔTm F21T” value in the data set with F21T was 4.20 ± 0.00 °C. Moreover, in the data set with PC-3 (72 hours, WST-1), the “Anticancer activity IC50 ± SD, PC-3” value is “NE (NE means not effective. Cell viability was the same or greater than 75% of the DMSO control at 20 μM compound concentration.)”. Moreover, the “ΔTm k-RAS21R” value in the data set with k-RAS21R is 2.19 ± 0.26 °C. In addition, in the data set with duplex, the ΔTm duplex entry is “NE (NE means not effective binding (ΔTm < 1° C.))”.
For the compound `CC(C)NC(=N)c1ccc(/N=N/c2c(N)ncc3ccc(Br)cc23)cc1` [HSY430-5], the “NADPH-independent T½” value in [1] (human liver microsomes) was over 4 h. Further, in data set [1] (human liver microsomes, read-out: NADPH-dependent T½), the half-life was over 4 h.
Turning to `N.N.[Cl][Pt][Cl]` [Cisplatin], the IC50 in the data set on CFPAC-1 is 38 µM; with PNT1 it was 5 µM; in the data set with U2-OS, 20 µM; in the data set on OVCAR-3 (read-out: Anticancer activity IC50 ± SD, OVCAR-3), 4.1 ± 1.8 µM; in the data set with PC3, 12 µM; with HT29, 22 µM. The IC50 was 7 µM in the data set on Hep2; 10 µM with HOS; 7 µM in the data set with MCF-7/DX; 2 µM in the data set on SH-SY5Y; 6 µM with A375; 15 µM in the data set on PANC-1. In addition, the IC50 with SAOS-2 was 11 µM; in the data set with RD, 6 µM; in the data set with HT1080, 9 µM; in the data set on Calu-3 it was over 50 µM; in the data set with MDA-MB-231 (72 hours, WST-1, read-out: Anticancer activity IC50 ± SD, MDA-MB-231) it was 11.7 ± 1 µM; in the data set on MDA-MB-231 (triple negative breast cancer, read-out: Anticancer activities, TNBC 231) it was 11.7 µM. The IC50 with A431 is 20 µM; with PC-3 (72 hours, WST-1, read-out: Anticancer activity IC50 ± SD, PC-3), 10.5 ± 1.3 µM; in the data set on PC-3 (prostate cancer, read-out: Anticancer activities, PC3), 10.5 µM; in the data set on SW872, 5 µM; in the data set on CAPAN-1 it was over 50 µM.
